Measurements: patent US20150329512A1, “METHOD AND PHARMACEUTICAL COMPOSITION FOR TREATING LUNG CANCER” (National Dong Hua University, priority 2014, published 2015)

Tests used:
[1] = tested on: human lung cancer in lung of mice; experiment: Mouse model bearing human lung cancer in lung (A549 or Anti-Dox-A549 cells injected)
Procedure: The animal experiments were approved by the National Dong-Hwa University Animal Ethics Committee and the experimental protocols were used according to the “Guide for the Care and Use of Laboratory Animals” of National Dong-Hwa University. 1×10^7 of A549 cells or Anti-Dox-A549 cells were suspended in PBS to prepare cell suspensions. On day 0, C57/BL6 mice (6-8 weeks old, n=6) were weighted and anesthetic using pentobarbital (5 mg/ml). Then, the mice were injected with the cell suspension (1×10^7 cells per mouse) into the lung by IT. The injection was repeated every 7 days for 21 days. Another group of mice were injected with 10% EtOH as comparative group according to the same procedure set forth above.
After the establishment of human lung cancer in the experimental mice, the mice were maintained for one more week and then treated with HCD (0.0318 or 1.272 mg/kg body weight, in 10% ETOH with PBS), PG (0.1615 or 0.646 mg/kg body weight, in 10% ETOH with PBS) or 10% EtOH by IT injection (intrathecal injection) to the lung. The body weight was monitored every five days for thirty days. After thirty days, the mice were sacrificed and the lungs were checked for marker of human lung adenocarcinoma by H&E and IHC staining. The livers, kidneys and spleens of the mice were also examined to confirm the cytotoxicity of HCD and PG and to see if there was any metastasis happened.

Anti-Dox-A549 cells [2] = experiment: MTT assay, cell viability; type: cell-based, human
Procedure: (§1) A549 (lung cancer cell line, non-resistance) and Anti-Dox-A549 (lung cancer cell line with resistance to Doxorubicin) were maintained in DMEM supplemented with 10% fetal bovine serum (FBS, Gibco), pH 7.4, 37° C. and with continuous circulation of 5% CO2. The medium was changed every 2 days and the cells were trypsinized with trypsin/EDTA when reaching 80%-90% confluence.
(§2) A549 and Anti-Dox-A549 were treated by the following treatment (Table 1) for 24 or 48 hr for examining the effects of HCD, PG, and Dox on their viability.
(§3) Dox1is referred as Dox of 1 μM; Dox2.5 is referred as Dox of 2.5 μM; Dox5 is referred as Dox of 5 μM; Dox10 is referred as Dox of 10 μM; Dox100 is referred as Dox of 100 μM. HCD2.5 is referred as HCD of 2.5 μM; HCD10 is referred as HCD of 10 μM; HCD25 is referred as HCD of 25 μM; HCD50 is referred as HCD of 50 μM. PG2.5 is referred as PG of 2.5 μM; PG5 is referred as PG of 5 μM; PG10 is referred as PG of 10 μM; PG20 is referred as PG of 20 μM.
(§4) In this example, the effects of HCD, PG, and Dox on the viability of A549 and anti-Dox-A549 were examined. The MTT assay was employed for this purpose. The MTT (3-(4-,5-dimethylthiazol-2-yl)-2,5-diphenyltetrazolium bromide) assay is a common colorimetric method in the field for cell viability analysis. MTT (yellow tetrazolium salt) is reduced to a purple formazan by living cells and detection to the purple formazan can be calculated as the cell viability.
(§5) Briefly, cells (A549 or Anti-Dox-A549) were seeded in 96-well plate (7×10^3 cell per well) and incubated overnight (37° C., 5% CO2).

A549 cells [3] = experiment: MTT assay, cell viability; type: cell-based, human
Procedure: as §1, §2, §3, §4, §5

Anti-Dox-A549 cells [4] = experiment: Cell cycle analysis by flow cytometer (PI staining); type: cell-based, human; conditions: for G0/G1 (%) / G2/M (%) / S (%) / Sub G1 (%): Anti-Dox-A549
Procedure: (§6) The results of Example 2 in cell viability hinted the effects of HCD, PG, and Dox on arresting cell cycle. In this example, the phase of cell cycle of A549 cells and Anti-Dox-A549 cells after the treatment listed in Table 1 was determined by flow cytometer. Briefly, 7×10^4 cells per well were to inoculated in 12-wells plate and incubated overnight at 37° C., 5% CO2. Then, cells were treated according to the treatment listed in Table 1 by indicated time period. After treatment, cells were harvested by trypsin and fixed with 70% ethanol at −20° C. for at least 3 hr. The cells were washed in cold PBS twice and then incubated with 1 ml (v/v) staining solution (20 μg/m1 propidium iodide (PI), 0.1% Triton X-100, 0.2 mg/ml Rnase) at 37° C. for 30 minutes. Lastly, cells were analyzed by flow cytometer (Cytomics™ FC500, Backman, Fullerton, Calif., USA). Data from 10,000 cells were collected for each experimental group.

A549 cells [5] = experiment: as above; type: cell-based, human; conditions: for G0/G1 (%) / G2/M (%) / S (%) / Sub G1 (%): A549
Procedure: as §6

[6] = mice treated by IT injection to the lung, after thirty days, data not shown
[7] = pre-treatment (HCD especially 10 or 25 μM), then Dox 1 or 2.5 μM

IC50 (Anti-Dox-A549 cells [2]; 24 hr treatment): ~50 µM | IC50 (A549 cells [3]; 24 hr treatment): ~50 µM
SMILES: CC1=CCCC2C1(C)CCC(C)C2(C)CCC1=CC(=O)OC1O (stereo not drawn) [HCD, 16-hydroxy-cleroda-3,13-dine-15,16-olide]
H&E and IHC staining of the lung ([1]; HCD 0.0318 or 1.272 mg/kg, PG 0.1615 or 0.646 mg/kg body weight, IT injection to the lung, after thirty days): less cell invention around blood vessels 1 and less cell accumulation 2 around the trachea 4 | body weight of the experimental mice ([1]; HCD 0.0318 or 1.272 mg/kg, PG 0.1615 or 0.646 mg/kg body weight, IT injection to the lung, monitored every five days for thirty days): did not show significantly change | injury of livers, kidneys and spleens (staining) [1, 6]: did not cause serious cytotoxicity | metastasis in livers, kidneys and spleens [1, 6]: no metastasis happened | effect of pre-treatment on the effects of Dox on cell viability (Anti-Dox-A549 cells [2]; [7]): rescue the sensitivity of Anti-Dox-A549 cells to Dox | effect of pre-treatment on the effects of Dox on cell viability (A549 cells [3]; [7]): enhance the effects of Dox on viability | cell cycle effect compared with the control group (Anti-Dox-A549 cells [4]; Anti-Dox-A549 cells, Tables 2 and 4): increased cell cycle arrest at G2/M phase | cell cycle effect of pre-treatment and subsequent Dox (Anti-Dox-A549 cells [4]; Anti-Dox-A549 cells, Tables 8 and 10): increased sub G1 phase and arrested at G2/M phase | G0/G1 (%) (Anti-Dox-A549 cells [4]; HCD 2.5 μM, 24 hr): 68.2 ± 2.8% | G2/M (%) (Anti-Dox-A549 cells [4]; HCD 2.5 μM, 24 hr): 16.5 ± 1.8% | S (%) (Anti-Dox-A549 cells [4]; HCD 2.5 μM, 24 hr): 12.1 ± 0.8% | Sub G1 (%) (Anti-Dox-A549 cells [4]; HCD 2.5 μM, 24 hr): 0.63 ± 0.05% | G0/G1 (%) (Anti-Dox-A549 cells [4]; HCD 2.5 μM, 36 hr): 80.3 ± 0.6% | G2/M (%) (Anti-Dox-A549 cells [4]; HCD 2.5 μM, 36 hr): 9.6 ± 0.3% | S (%) (Anti-Dox-A549 cells [4]; HCD 2.5 μM, 36 hr): 7.4 ± 0.2% | Sub G1 (%) (Anti-Dox-A549 cells [4]; HCD 2.5 μM, 36 hr): 0.93 ± 0.2% | G0/G1 (%) (Anti-Dox-A549 cells [4]; HCD 2.5 μM, 48 hr): 82.1 ± 0.7% | G2/M (%) (Anti-Dox-A549 cells [4]; HCD 2.5 μM, 48 hr): 8.9 ± 0.7% | S (%) (Anti-Dox-A549 cells [4]; HCD 2.5 μM, 48 hr): 6.1 ± 0.3% | Sub G1 (%) (Anti-Dox-A549 cells [4]; HCD 2.5 μM, 48 hr): 1.56 ± 0.2% | G0/G1 (%) (Anti-Dox-A549 cells [4]; HCD 10 μM, 24 hr): 83.6 ± 1.4 % | G2/M (%) (Anti-Dox-A549 cells [4]; HCD 10 μM, 24 hr): 6.6 ± 0.55 % | S (%) (Anti-Dox-A549 cells [4]; HCD 10 μM, 24 hr): 7.0 ± 0.6% | Sub G1 (%) (Anti-Dox-A549 cells [4]; HCD 10 μM, 24 hr): 0.73 ± 0.05% | G0/G1 (%) (Anti-Dox-A549 cells [4]; HCD 10 μM, 36 hr): 75.8 ± 0.3 % | G2/M (%) (Anti-Dox-A549 cells [4]; HCD 10 μM, 36 hr): 11.8 ± 1.0 % | S (%) (Anti-Dox-A549 cells [4]; HCD 10 μM, 36 hr): 9.2 ± 0.4 % | Sub G1 (%) (Anti-Dox-A549 cells [4]; HCD 10 μM, 36 hr): 1 ± 0.2% | G0/G1 (%) (Anti-Dox-A549 cells [4]; HCD 10 μM, 48 hr): 82.2 ± 0.7% | G2/M (%) (Anti-Dox-A549 cells [4]; HCD 10 μM, 48 hr): 8.3 ± 0.2% | S (%) (Anti-Dox-A549 cells [4]; HCD 10 μM, 48 hr): 6.4 ± 0.3% | Sub G1 (%) (Anti-Dox-A549 cells [4]; HCD 10 μM, 48 hr): 1.76 ± 0.1% | G0/G1 (%) (Anti-Dox-A549 cells [4]; HCD 25 μM, 24 hr): 70.5 ± 2.7% | G2/M (%) (Anti-Dox-A549 cells [4]; HCD 25 μM, 24 hr): 19.3 ± 1.7 % | S (%) (Anti-Dox-A549 cells [4]; HCD 25 μM, 24 hr): 7.9 ± 0.8 % | Sub G1 (%) (Anti-Dox-A549 cells [4]; HCD 25 μM, 24 hr): 1.3 ± 0.1 % | G0/G1 (%) (Anti-Dox-A549 cells [4]; HCD 25 μM, 36 hr): 73.9 ± 2.7 % | G2/M (%) (Anti-Dox-A549 cells [4]; HCD 25 μM, 36 hr): 17.7 ± 1.9 % | S (%) (Anti-Dox-A549 cells [4]; HCD 25 μM, 36 hr): 5.4 ± 0.9% | Sub G1 (%) (Anti-Dox-A549 cells [4]; HCD 25 μM, 36 hr): 3.43 ± 0.2 % | G0/G1 (%) (Anti-Dox-A549 cells [4]; HCD 25 μM, 48 hr): 3.73 ± 1.6 % | G2/M (%) (Anti-Dox-A549 cells [4]; HCD 25 μM, 48 hr): 21.8 ± 2.4 % | S (%) (Anti-Dox-A549 cells [4]; HCD 25 μM, 48 hr): 11.2 ± 1.3 % | Sub G1 (%) (Anti-Dox-A549 cells [4]; HCD 25 μM, 48 hr): 27.2 ± 0.5 % | cell cycle effect compared with the control group (A549 cells [5]; A549 cells, Tables 3 and 5): increased cell cycle arrest at G2/M phase | cell cycle effect of pre-treatment and subsequent Dox (A549 cells [5]; A549 cells, Tables 9 and 11): increased sub G1 phase and arrested at G2/M phase | G0/G1 (%) (A549 cells [5]; HCD 2.5 μM, 24 hr): 77.3 ± 0.9% | G2/M (%) (A549 cells [5]; HCD 2.5 μM, 24 hr): 9.7 ± 0.9% | S (%) (A549 cells [5]; HCD 2.5 μM, 24 hr): 9.6 ± 0.5% | Sub G1 (%) (A549 cells [5]; HCD 2.5 μM, 24 hr): 1.0 ± 0.2% | G0/G1 (%) (A549 cells [5]; HCD 2.5 μM, 36 hr): 74.4 ± 2.6 % | G2/M (%) (A549 cells [5]; HCD 2.5 μM, 36 hr): 11.8 ± 0.9% | S (%) (A549 cells [5]; HCD 2.5 μM, 36 hr): 9.5 ± 0.4 % | Sub G1 (%) (A549 cells [5]; HCD 2.5 μM, 36 hr): 1.1 ± 0.1% | G0/G1 (%) (A549 cells [5]; HCD 2.5 μM, 48 hr): 80.4 ± 0.2% | G2/M (%) (A549 cells [5]; HCD 2.5 μM, 48 hr): 8.9 ± 0.1% | S (%) (A549 cells [5]; HCD 2.5 μM, 48 hr): 6.9 ± 0.1% | Sub G1 (%) (A549 cells [5]; HCD 2.5 μM, 48 hr): 1.8 ± 0.2% | G0/G1 (%) (A549 cells [5]; HCD 10 μM, 24 hr): 85.6 ± 6.9 % | G2/M (%) (A549 cells [5]; HCD 10 μM, 24 hr): 6.1 ± 0.5 % | S (%) (A549 cells [5]; HCD 10 μM, 24 hr): 3.9 ± 2.8 % | Sub G1 (%) (A549 cells [5]; HCD 10 μM, 24 hr): 1 ± 0.2% | G0/G1 (%) (A549 cells [5]; HCD 10 μM, 36 hr): 75.4 ± 1.8% | G2/M (%) (A549 cells [5]; HCD 10 μM, 36 hr): 10.0 ± 1.2% | S (%) (A549 cells [5]; HCD 10 μM, 36 hr): 10.7 ± 0.4 % | Sub G1 (%) (A549 cells [5]; HCD 10 μM, 36 hr): 1.4 ± 0.2% | G0/G1 (%) (A549 cells [5]; HCD 10 μM, 48 hr): 75.6 ± 1.8% | G2/M (%) (A549 cells [5]; HCD 10 μM, 48 hr): 11.2 ± 0.2 % | S (%) (A549 cells [5]; HCD 10 μM, 48 hr): 8.7 ± 0.2% | Sub G1 (%) (A549 cells [5]; HCD 10 μM, 48 hr): 1.8 ± 0.2% | G0/G1 (%) (A549 cells [5]; HCD 25 μM, 24 hr): 62.9 ± 3.3% | G2/M (%) (A549 cells [5]; HCD 25 μM, 24 hr): 22.8 ± 3.0 % | S (%) (A549 cells [5]; HCD 25 μM, 24 hr): 11.1 ± 1.3% | Sub G1 (%) (A549 cells [5]; HCD 25 μM, 24 hr): 1.5 ± 0.2% | G0/G1 (%) (A549 cells [5]; HCD 25 μM, 36 hr): 62.3 ± 1.3 % | G2/M (%) (A549 cells [5]; HCD 25 μM, 36 hr): 22.8 ± 1.5 % | S (%) (A549 cells [5]; HCD 25 μM, 36 hr): 9.2 ± 0.7 % | Sub G1 (%) (A549 cells [5]; HCD 25 μM, 36 hr): 2.7 ± 0.1 % | G0/G1 (%) (A549 cells [5]; HCD 25 μM, 48 hr): 61.7 ± 1.2 % | G2/M (%) (A549 cells [5]; HCD 25 μM, 48 hr): 22.7 ± 0.5 % | S (%) (A549 cells [5]; HCD 25 μM, 48 hr): 7.9 ± 1.3% | Sub G1 (%) (A549 cells [5]; HCD 25 μM, 48 hr): 1.9 ± 0.5 %
